Here are results for 12 compounds from ChEMBL document CHEMBL1137616, “Poorly soluble marketed drugs display solvation limited solubility” (J Med Chem, 2007).

Converted amounts (≈) assume the structure as drawn. Where only a bound is given, the exact number is not on record here.

A short description of this data set: Solubility by shake flask method.
On to `CCCSc1ccc2nc(NC(=O)OC)[nH]c2c1` [ALBENDAZOLE], for which the Solubility (in general, how much of the substance goes into solution per volume) was found to be 0.983 µM (≈ 0.261 µg/mL).
With `COc1ccc(CCN2CCC(Nc3nc4ccccc4n3Cc3ccc(F)cc3)CC2)cc1` [ASTEMIZOLE] the figure was 0.0668 µM (≈ 0.0306 µg/mL).
The compound `COc1ccccc1OCCNCC(O)COc1cccc2[nH]c3ccccc3c12` (configuration not stated) [CARVEDILOL] had a Solubility of 0.713 µM (≈ 0.29 µg/mL).
With `CCOC(=O)C1=C(C)NC(C)=C(C(=O)OC)C1c1cccc(Cl)c1Cl` (configuration not stated) [FELODIPINE] the figure was 0.276 µM (≈ 0.106 µg/mL); with `CCC1=C(C)CN(C(=O)NCCc2ccc(S(=O)(=O)NC(=O)N[C@H]3CC[C@H](C)CC3)cc2)C1=O` [GLIMEPIRIDE], 0.0127 µM (≈ 0.00623 µg/mL).
The compound `COc1ccc(Cl)cc1C(=O)NCCc1ccc(S(=O)(=O)NC(=O)NC2CCCCC2)cc1` [GLYBURIDE] registered a Solubility of 0.0891 µM (≈ 0.044 µg/mL).
With `COc1ccc2c(c1)c(CC(=O)O)c(C)n2C(=O)c1ccc(Cl)cc1` [INDOMETHACIN] the figure was 1.1333 µM (≈ 0.405 µg/mL); with `CCC(C)n1ncn(-c2ccc(N3CCN(c4ccc(OCC5COC(Cn6cncn6)(c6ccc(Cl)cc6Cl)O5)cc4)CC3)cc2)c1=O` (configuration not stated) [ITRACONAZOLE], 0.0033 µM (≈ 0.00233 µg/mL).
Under `Cc1c(C(=O)NN2CCCCC2)nn(-c2ccc(Cl)cc2Cl)c1-c1ccc(Cl)cc1` [RIMONABANT] stands 0.0965 µM (≈ 0.0448 µg/mL).
Under `CC(C)(C)c1ccc(C(O)CCCN2CCC(C(O)(c3ccccc3)c3ccccc3)CC2)cc1` (configuration not stated) [TERFENADINE] stands 0.0116 µM (≈ 0.00547 µg/mL).
Turning to `Cc1c(Cl)cccc1Nc1ccccc1C(=O)O` [TOLFENAMIC ACID], the Solubility was 0.0136 µM (≈ 0.00356 µg/mL).
Under `Cc1c(C)c2c(c(C)c1O)CCC(C)(COc1ccc(CC3SC(=O)NC3=O)cc1)O2` (configuration not stated) [TROGLITAZONE] stands under 0.0159 µM.
